Experimental data from patent US6902881B2, “Compounds and methods for regulating cell differentiation” (priority 2000, dated 2005).

Tested on: liposarcoma (LS) cells
Experiment: Proliferation of liposarcoma cells
Type: cell-based, human

Q: Which results are given for `C=CC1=C(C)/C(=C/C2=NC(=C\c3[nH]c(/C=C4\NC(=O)C(C)=C4C=C)c(C)c3CCC(=O)O)/C(CCC(=O)O)=C2C)NC1=O` [Biliverdin, biliverdin IXα]?
A: day after which division resumes at markedly reduced rate: > 3 days; division slower than control: 3.3 times; time until proliferation ceases: within one day
